{"source": "patent US5585367A", "about": "(priority 1990, dated 1996)", "key": {"[1]": {"system": "HIV-1 strain IIIB /LAI", "test": "Inhibition of HIV-1 replication in acutely infected PBLs (p24 ELISA)", "assay_type": "cell-based", "settings": "for Protection: \"Toxic\" means that the cells are destroyed", "description": "A new assay was conducted by the AIDS laboratory of the REGA Institute for Medical Research of the Katholieke Universiteit of Leuven.\n1,1'-azobisformamide was purchased from Riedel de Haen and stored in a refrigerator (4°-8° C.) under light-protected conditions. Dilutions were prepared in order to obtain concentrations of 0.4 μg/ml, 2 μg/ml, 10 μg/ml, 50 μg/ml and 250 μg/ml.\nPeripheral Blood Lymphocytes (PBLs) were freshly collected from a single donor. PBLs were activated by phytohemagglutinin at 2 μg/ml during 3 days, and then cultured in the presence of IL-2 for 1 week.\nHIV-1 strain IIIB /LAI was provided by R. C. Gallo (Popovic M. et al, Science 1984, 224:497-500). Stocks were obtained from the culture supernatants of HIV-1 infected cell lines (HUT 78/IIIB /LAI).\nThe inhibitory effects of 1,1'-azobisformamide on the replication of strain IIIB /LAI in PBLs were monitored by the detection of HIV-1 p24 core antigens. PBLs were incubated with an excess of strain IIIB /LAI at 37° C. for 60 min. All cells were washed once with RPMI 1640 medium. Thereafter cells were plated at 1×10^6 cells per ml in the presence of various concentrations of the test compound. Seven days after plating PBLs, p24 antigens were detected by enzyme-linked immunosorbent assay (ELISA) (HIV-1 p24 Core Profile ELISA from Du Pont).\nThis method comprises measuring the concentration of the viral antigen p24 in the supernatant, i.e., the concentration of free viruses produced by replication of the viruses present in the infected cells. This measure is expressed as a measure of protection (see Table I below), where [formula]"}, "[2]": {"system": "Vesicular Stomatitis Virus (VSV)", "test": "microbe, parasite or virus in culture", "assay_type": "cell-based", "design": "TCID 50: unit not given here", "settings": "for log reduction at 50 µg/mL / log reduction at 100 µg/mL / log reduction at 150 µg/mL / log reduction at 250 µg/mL: Vesicular stomatitis virus, Vero"}, "[3]": {"system": "HIV-1 Wild E", "test": "Inhibition of HIV replication in PBL's", "assay_type": "cell-based", "settings": "Human immunodeficiency virus 1"}, "[4]": {"system": "CD4 lymphocyte", "test": "Treatment of four patients with advanced AIDS, CD4 lymphocyte counts (FIG. 1)", "assay_type": "in vivo, human", "settings": "all dosage regimens combined", "description": "Four patients with advanced AIDS have been treated with ADA. One patient has been treated during two periods, i.e., treated was restarted after a return to baseline subsequent to the withdrawal of ADA. The patients received capsules containing 500 mg. The dosage regimen was 500 mg three times a day except during the second treatment period in the patient who is also the patient of Example 27 where the dosage regimen was increased to 1 gram three times a day. The graph represents the median value of all CD4 lymphocyte counts measured in the patients. All dosage regimens are combined. There were five periods of ADA treatment. Due to the small number of values, medians were calculated by carrying forward the last values of the patients with no data point in the corresponding treatment week. Values of patients who dropped out of the study were carried forward. The linear regression is represented by the equation Y=77.2 +4.8 X, where Y is the absolute CD4 […] and X is the number of weeks after start of ADA treatment. The correlation coefficient is 0.79."}, "[5]": {"system": "HIV", "test": "Inhibition of HIV replication, summary over strains and cells", "assay_type": "cell-based, HIV-1 and HIV-2", "settings": "Human immunodeficiency virus 1, p24, 7 to 8 days after infection"}, "[6]": {"system": "VERO cells"}, "[7]": {"system": "genes \"GAG\", \"LTR\" and \"ENV\" of the HIV-1 provirus", "test": "Integration of viral genome into chromosomic DNA of Supt-1 cells (PCR)", "assay_type": "cell-based", "settings": "35 μgr/ml; virus incubated for 15 minutes", "description": "By means of a genetic amplification through a thermostable polymerase, the presence of genes \"GAG\", \"LTR\" and \"ENV\" of the HIV-1 provirus is evidenced. This method is called P.C.R. Polymerase chain Reaction) (Chin-Yih Ou et al., Sciences 239, 295-297, 1988).\nSaid method is applied for detecting HIV-1 provirus in the genome of Supt-1 cells inoculated with HIV-1 virus incubated with […] (dilution 1/100), as described in Example 8\nAmplified oligonucleotides, UV visible by means of ethidium bromide appear only in the tubes corresponding to an inoculation with HIV-1 viruses which were not treated with the active substance.\nOne proceeds as in Example 11(c). The search of genes \"GAG\", \"LTR\" and \"ENV\" has been made in cellular cultures inoculated with a virus incubated for 15 minutes with the active substance. This search is appeared as being negative, and thus it can be concluded that 1.1'-azobisformamide at the dosage of 35 μgr/ml protects the cells against infection by HIV-1.\nExamples 10c and 11c disclose a more accurate method than the ELISA test for examining whether the inoculated cells contain HIV-1 at the end of the assay, i.e., the PCR-Method."}}, "note": "Several values for one entry are separate records, joined by “and”; a condition that tells them apart may be missing. Identical values can stand only once. Like-named read-outs stand apart in the source and are kept apart here."}
{"smiles": "NC(=O)N=NC(N)=O", "note": "[ADA, 1,1'-azobisformamide]", "values": [{"measurement": "Protection", "setting": "[1]; 50 μg/ml", "result": "Toxic"}, {"measurement": "Protection", "setting": "[1]; 250 μg/ml", "result": "Toxic"}, {"measurement": "inhibition at 0.4 µg/mL", "setting": "[1]; Human immunodeficiency virus 1, IIIB, 168 h, 0.4 μg/ml, read-out: Protection", "result": 15.2, "unit": "%"}, {"measurement": "inhibition at 2 µg/mL", "setting": "[1]; Human immunodeficiency virus 1, IIIB, 168 h, 2 μg/ml, read-out: Protection", "result": 45.8, "unit": "%"}, {"measurement": "inhibition at 10 µg/mL", "setting": "[1]; Human immunodeficiency virus 1, IIIB, 168 h, 10 μg/ml, read-out: Protection", "result": 77.6, "unit": "%"}, {"measurement": "IC50", "setting": "[1]; Human immunodeficiency virus 1, PBLs acutely infected with IIIB /LAI", "result": 2.47, "unit": "µg/mL"}, {"measurement": "TCID 50", "setting": "[2]", "result": "6.90 and 6.73 and 6.55 and 4.28 and 3.75 and 3.58 and 3.93"}, {"measurement": "log reductions", "setting": "[2]", "result": "> 2.0"}, {"measurement": "log reduction at 50 µg/mL", "setting": "[2]; 10 min, read-out: Log Red", "result": 1.05}, {"measurement": "log reduction at 100 µg/mL", "setting": "[2]; 10 min, read-out: Log Red", "result": 1.22}, {"measurement": "log reduction at 150 µg/mL", "setting": "[2]; 10 min, read-out: Log Red", "result": 1.22}, {"measurement": "log reduction at 250 µg/mL", "setting": "[2]; 10 min, read-out: Log Red", "result": 1.4}, {"measurement": "log reduction at 50 µg/mL", "setting": "[2]; 1 h, read-out: Log Red", "result": 1.4}, {"measurement": "log reduction at 100 µg/mL", "setting": "[2]; 1 h, read-out: Log Red", "result": 1.22}, {"measurement": "log reduction at 150 µg/mL", "setting": "[2]; 1 h, read-out: Log Red", "result": 1.4}, {"measurement": "log reduction at 250 µg/mL", "setting": "[2]; 1 h, read-out: Log Red", "result": 1.4}, {"measurement": "log reduction at 50 µg/mL", "setting": "[2]; 20 h, read-out: Log Red", "result": 1.75}, {"measurement": "log reduction at 100 µg/mL", "setting": "[2]; 20 h, read-out: Log Red", "result": 2.28}, {"measurement": "log reduction at 150 µg/mL", "setting": "[2]; 20 h, read-out: Log Red", "result": 2.45}, {"measurement": "log reduction at 250 µg/mL", "setting": "[2]; 20 h, read-out: Log Red", "result": 2.1}, {"measurement": "log reduction at 150 µg/mL", "setting": "[2]; read-out: log reduction (strongest effect)", "result": 2.28}, {"measurement": "IC50", "setting": "[3]", "result": 8.3, "unit": "µg/mL"}, {"measurement": "IC90", "setting": "[3]", "result": 18.4, "unit": "µg/mL"}, {"measurement": "correlation coefficient of the CD4 regression", "setting": "[4]", "result": 0.79}, {"measurement": "IC50", "setting": "[5]; read-out: IC50 range", "result": "1.6 to 14.8", "unit": "µg/mL"}, {"measurement": "IC50", "setting": "[5]; read-out: median IC50", "result": 8, "unit": "µg/mL"}, {"measurement": "toxicity against VERO cells", "setting": "[6]", "result": "No toxicity against VERO cells was observed"}, {"measurement": "search of genes \"GAG\", \"LTR\" and \"ENV\"", "setting": "[7]", "result": "negative"}]}
